Assays:
[1] = molecular target: T1, α-synuclein (αS) type A* oligomers (Homo sapiens, UniProt P37840, N122C); experiment: dcFCCS binding of labelled peptide to αS type A* oligomers
T1 construct: made in house; host or cells: Escherichia coli BL21 (DE3), pET21a

[2] = molecular target: T2, α-synuclein (αS) sonicated fibrils (Homo sapiens, UniProt P37840, N122C); experiment: dcFCCS binding of labelled peptide to αS sonicated fibrils
T2 construct: made in house; host or cells: Escherichia coli BL21 (DE3), pET21a
Description: (§1) This variant was expressed and purified as described above but including 5 mM DTT in all purification steps. The protein was labeled with maleimide-modified Alexa Fluor 488 (AF488) (Invitrogen, Carlsbad, USA) for 15–20 h at 4 °C in the dark. After quenching the reaction with 10 mM DTT, free unreacted dye in the protein solution was subsequently separated using a P10 desalting column (GE Healthcare, Waukesha, USA), and the labeled protein solution was flash frozen with liquid nitrogen and stored at −80 °C. […] The same labeling and purification strategy were followed as for αS, although in this case the unreacted free dye was removed from the protein solution using a polyacrylamide desalting column (Thermo Fisher Scientific, Waltham, USA).
(§2) For the isolation of type B* oligomers purified αS was dialyzed against Milli-Q water and lyophilized for 48 h in aliquots of 6 mg. The aliquots were resuspended in 500 μL of PBS pH 7.4 to a final concentration of ca. 800 μM, filtered through 0.22 μm filters and incubated at 37 °C without agitation for 20–24 h.

[3] = molecular target: T3, α-synuclein (αS) type B* oligomers (Homo sapiens, UniProt P37840, N122C); experiment: dcFCCS binding of labelled peptide to αS type B* oligomers
T3 construct: made in house; host or cells: Escherichia coli BL21 (DE3), pET21a
Description: as §1, §2

[4] = test system: α-synuclein (αS) amyloid aggregation; experiment: αS amyloid aggregation kinetics by thioflavin-T fluorescence; format: biochemical; conditions: 70 μM αS with 35, 14, 7 (3.5) μM peptide, PBS, 37 °C
Description: αS amyloid aggregation was monitored in a 96 wells plate (non-treated) (Sarstedt, Germany) containing Teflon polyballs (1/8′′ diameter) (Polysciences Europe GmbH, Eppelheim, Germany) as described by Pujols and coworkers. Each well contained 150 μL solutions of 70 μM αS in PBS buffer with 40 μM thioflavin-T and the corresponding concentration of peptide. Plates were incubated at 37 °C, 100 rpm in an orbital culture shaker Max-Q 4000 (Thermo Fisher Scientific, Waltham, USA). Aggregation was analyzed every 2 h using a Victor3.0 Multilabel Reader Software-PerkinElmer 2030. (PerkinElmer, Waltham, USA). End-point measurements were performed after 32 h of incubation. Fluorescence intensity was measured in triplicate by exciting with a 430–450 nm filter and collecting the emission with a 480–510 nm filter. The resulting kinetics were normalized to the maximum fluorescence of the αS control (untreated).

[5] = molecular target: α-synuclein sonicated amyloid fibrils (AF488-labelled αS N122C) (UniProt P37840); experiment: dual-color fluorescence cross-correlation spectroscopy (dcFCCS)
[6] = molecular target: α-synuclein type B* oligomers (AF488-labelled αS N122C) (UniProt P37840); experiment: as above
[7] = molecular target: α-synuclein type A* oligomers (AF488-labelled αS N122C) (UniProt P37840); experiment: as above
[8] = molecular target: α-synuclein N122C labelled with Alexa Fluor 488, monomer (UniProt P37840); experiment: FCS molecular brightness; sonicated fibril sample; brightness of the aggregates compared with that of the αS monomer; average number of αS molecules per aggregate

CC[C@H](C)[C@H](NC(=O)[C@H](CCCCN)NC(=O)[C@H](CCC(=O)O)NC(=O)[C@H](CCCCN)NC(=O)[C@H](CO)NC(=O)[C@H](CCCCN)NC(=O)[C@H](CCCNC(=N)N)NC(=O)[C@H](Cc1ccccc1)NC(=O)[C@H](Cc1ccccc1)NC(=O)[C@H](CC(=O)O)NC(=O)CNC(=O)[C@H](CC(C)C)NC(=O)[C@@H](N)CC(C)C)C(=O)NCC(=O)N[C@@H](CCCCN)C(=O)N[C@@H](CCC(=O)O)C(=O)N[C@@H](Cc1ccccc1)C(=O)N[C@@H](CCCCN)C(=O)N[C@@H](CCCNC(=N)N)C(=O)N[C@H](C(=O)N[C@H](C(=O)N[C@@H](CCC(N)=O)C(=O)N[C@@H](CCCNC(=N)N)C(=O)N[C@H](C(=O)N[C@@H](CCCCN)C(=O)N[C@@H](CC(=O)O)C(=O)N[C@@H](Cc1ccccc1)C(=O)N[C@@H](CC(C)C)C(=O)N[C@@H](CCCNC(=N)N)C(=O)N[C@@H](CC(N)=O)C(=O)N[C@@H](CC(C)C)C(=O)N[C@H](C(=O)N1CCC[C@H]1C(=O)N[C@@H](CCCNC(=N)N)C(=O)N[C@H](C(=O)N[C@@H](CCC(=O)O)C(=O)N[C@@H](CO)C(=O)O)[C@@H](C)O)C(C)C)[C@@H](C)CC)C(C)C)[C@@H](C)CC [LL-37]
Kd [1]: 1.92 nM
Kd [2]: 5.14 nM
Kd [3]: 3.62 nM

LELLAKLLKLLKDLLGKLL [All_Leu19, variant of All-Leu devoid of the last three C-terminal residues]
anti-aggregation (inhibitory) activity, Th-T titration [4]: retained the inhibitory activity

LELLEELLKLLEDLLKKLL [Anionic_scaffold]
anti-aggregation (inhibitory) activity, Th-T titration [4]: does not inhibit

LELLEKLLKLLKDLLKKLL [Scaffold_19, only Leu, Asp, Glu and Lys]
anti-aggregation (inhibitory) activity, Th-T titration [4]: same anti-aggregation activity than the parental variant

LL-37 with a single engineered N-terminal cysteine labelled with Atto647N (peptide)
stoichiometry N (binding sites per aggregate) [5]: 181
stoichiometry N (binding sites per aggregate) [6]: 64
stoichiometry N (binding sites per aggregate) [7]: 3

α-synuclein N122C labelled with Alexa Fluor 488, monomer (from UniProt P37840 1-140) (natural protein)
stoichiometry N (αS molecules per aggregate) [8]: 107

— PMC8213730, “α-Helical peptidic scaffolds to target α-synuclein toxic species with nanomolar affinity” (Nature Communications, 2021)
